Measured values as given in ChEMBL document CHEMBL1201862, “PubChem BioAssay data set” (2004).
Where a name gives a salt, the structure may show the parent alone.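 Each compound was tested at five concentrations against cells in 96-well plates for 48 hours. GI50 marks 50% less growth.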 The source made the active and inactive calls. Cut-off read from the data, not from the text of the source: active = GI50 up to about 1.1 µM and inactive = higher. Residues, ends and D or L forms follow the SMILES beside them. *: point of attachment. Tfa = O=C(C(F)(F)F)*

What was measured:
Experiment in all cases: NCI tumour cell line growth inhibition, 48 h
SF-295 = tested on: SF-295
BT-549 = tested on: BT-549
EKVX = tested on: EKVX
HT-29 = tested on: HT-29
Malme-3M = tested on: Malme-3M
LOX IMVI = tested on: LOX IMVI
TK-10 = tested on: TK-10
ACHN = tested on: ACHN
CCRF-CEM = tested on: CCRF-CEM
SR = tested on: SR
MDA-MB-231 = tested on: MDA-MB-231
OVCAR-5 = tested on: OVCAR-5
Hs-578T = tested on: Hs-578T
MDA-MB-435 = tested on: MDA-MB-435
NCI-H226 = tested on: NCI-H226
MCF7 = tested on: MCF7
SK-OV-3 = tested on: SK-OV-3
OVCAR-8 = tested on: OVCAR-8
IGROV-1 = tested on: IGROV-1

Row | SMILES | GI50 (SF-295) | GI50 (BT-549) | GI50 (EKVX) | GI50 (HT-29) | GI50 (Malme-3M) | GI50 (LOX IMVI) | GI50 (TK-10) | GI50 (ACHN) | GI50 (CCRF-CEM) | GI50 (SR) | GI50 (MDA-MB-231) | GI50 (OVCAR-5) | GI50 (Hs-578T) | GI50 (MDA-MB-435) | GI50 (NCI-H226) | GI50 (MCF7) | GI50 (SK-OV-3) | GI50 (OVCAR-8) | GI50 (IGROV-1)
1 | CN(CCCNC(=O)c1cn(C)c2c1ccc1cc(Cl)c(Cl)cc12)CCCNC(=O)c1cn(C)c2c1ccc1cc(Cl)c(Cl)cc12 | 17.1 µM (inactive) | 15.6 µM (inactive) | 15.4 µM (inactive) | 14.8 µM (inactive) | 17.1 µM (inactive) | 5.74 µM (inactive) | 17.5 µM (inactive) | 13.1 µM (inactive) | 8.53 µM (inactive) | 4.57 µM (inactive) | 15.4 µM (inactive) | 16.4 µM (inactive) | 8.73 µM (inactive) | 6.17 µM (inactive) | 22.1 µM (inactive) | 5.16 µM (inactive) | 15.2 µM (inactive) | 14.8 µM (inactive) | 7.62 µM (inactive)
2 | OB1OCc2ccccc21 [BENZOXABOROLE] | 12.1 µM (inactive) | > 100 µM (inactive) | – | 26.7 µM (inactive) | > 100 µM (inactive) | 39 µM (inactive) | 38.9 µM (inactive) | – | 18 µM (inactive) | 52.7 µM (inactive) | 77.1 µM (inactive) | – | 62.1 µM (inactive) | 35.9 µM (inactive) | 39.5 µM (inactive) | 24.9 µM (inactive) | 16.1 µM (inactive) | 31.1 µM (inactive) | 35.2 µM (inactive)
3 | C=C(Cl)C(=C)CCC(Cl)C(C)(C)Cl (configuration not stated) | > 100 µM (inactive) | > 100 µM (inactive) | > 100 µM (inactive) | > 100 µM (inactive) | > 100 µM (inactive) | > 100 µM (inactive) | > 100 µM (inactive) | > 100 µM (inactive) | > 100 µM (inactive) | > 100 µM (inactive) | > 100 µM (inactive) | > 100 µM (inactive) | > 100 µM (inactive) | > 100 µM (inactive) | > 100 µM (inactive) | > 100 µM (inactive) | > 100 µM (inactive) | – | > 100 µM (inactive)
4 | O=C(O)CC(NC(=O)C(F)(F)F)C(=O)NC(Cc1ccc(O)cc1)C(=O)O (stereo not drawn) (Tfa-Asp-Tyr-OH; configuration not given here) | > 50 µM (inactive) | > 50 µM (inactive) | > 50 µM (inactive) | > 50 µM (inactive) | > 50 µM (inactive) | – | > 50 µM (inactive) | > 50 µM (inactive) | – | > 50 µM (inactive) | > 50 µM (inactive) | > 50 µM (inactive) | > 50 µM (inactive) | > 50 µM (inactive) | > 50 µM (inactive) | > 50 µM (inactive) | > 50 µM (inactive) | > 50 µM (inactive) | > 50 µM (inactive)
5 | CCOC(=O)CC[C@@H](NC(=O)c1ccc(NCc2ccc3nc(OC)c(OC)nc3c2)cc1)C(=O)OCC | 70.8 µM (inactive) | > 67.3 µM (inactive) | > 78.3 µM (inactive) | > 72.8 µM (inactive) | 19.5 µM (inactive) | 38.9 µM (inactive) | 60.5 µM (inactive) | 22.3 µM (inactive) | 32.6 µM (inactive) | 25.1 µM (inactive) | 36.1 µM (inactive) | > 100 µM (inactive) | > 29.9 µM (inactive) | 31.4 µM (inactive) | 58.7 µM (inactive) | 25.5 µM (inactive) | > 100 µM (inactive) | > 100 µM (inactive) | 22.5 µM (inactive)
6 | O=C(Nc1nnc(-c2ccc(Cl)cc2)o1)C(SC(=S)N1CCCCC1)c1ccccc1 (configuration not stated) | 12 µM (inactive) | 17.6 µM (inactive) | 20.7 µM (inactive) | 22.2 µM (inactive) | 3.11 µM (inactive) | 6.12 µM (inactive) | 34 µM (inactive) | 15.7 µM (inactive) | 4.71 µM (inactive) | 3.91 µM (inactive) | 19.4 µM (inactive) | 21.5 µM (inactive) | 26.2 µM (inactive) | 21.2 µM (inactive) | 32.7 µM (inactive) | 18.7 µM (inactive) | 32.3 µM (inactive) | 22.1 µM (inactive) | 9.38 µM (inactive)
7 | CC(C)CC(N)C(=O)NC(C(=O)NC(CCCNC(=N)N)C(=O)NC(CS)C(=O)NC1CSCC(C(=O)NC(Cc2ccccc2)C(=O)NC(C(=O)NC(CCCNC(=N)N)C(=O)O)C(C)C)NC(=O)C2CCCN2C(=O)C(CCCCN)NC(=O)C2CCCN2C(=O)C2CCCN2C(=O)C(Cc2ccc(O)cc2)NC(=O)C(CO)NC(=O)C(CCCCN)NC(=O)C(C(C)O)NC(=O)C(Cc2c[nH]c3ccccc23)NC1=O)C(C)C (configuration not stated) | > 25 µM (inactive) | > 25 µM (inactive) | > 25 µM (inactive) | > 25 µM (inactive) | > 25 µM (inactive) | > 25 µM (inactive) | > 25 µM (inactive) | > 25 µM (inactive) | > 25 µM (inactive) | > 25 µM (inactive) | > 25 µM (inactive) | > 25 µM (inactive) | > 25 µM (inactive) | > 25 µM (inactive) | > 25 µM (inactive) | > 25 µM (inactive) | > 25 µM (inactive) | > 25 µM (inactive) | > 25 µM (inactive)
8 | COCn1c2ccc(OC(C)=O)cc2c2c(=O)oc(C)nc21 | > 100 µM (inactive) | > 100 µM (inactive) | > 100 µM (inactive) | 0.497 µM (active) | > 100 µM (inactive) | > 100 µM (inactive) | > 100 µM (inactive) | > 100 µM (inactive) | > 100 µM (inactive) | > 100 µM (inactive) | > 100 µM (inactive) | > 100 µM (inactive) | > 100 µM (inactive) | > 100 µM (inactive) | > 100 µM (inactive) | > 100 µM (inactive) | > 100 µM (inactive) | > 100 µM (inactive) | > 100 µM (inactive)
9 | Cn1c2c(c3ccccc31)CC(=O)N1CCCCC1C21OCCO1 (configuration not stated) | > 100 µM (inactive) | > 100 µM (inactive) | > 100 µM (inactive) | > 100 µM (inactive) | > 100 µM (inactive) | – | > 100 µM (inactive) | > 100 µM (inactive) | > 100 µM (inactive) | > 100 µM (inactive) | > 100 µM (inactive) | > 100 µM (inactive) | > 100 µM (inactive) | > 100 µM (inactive) | > 100 µM (inactive) | > 100 µM (inactive) | > 100 µM (inactive) | > 100 µM (inactive) | > 100 µM (inactive)
10 | CC(=O)c1c(C)[n+]([O-])c2cc(Cl)c(Cl)cc2[n+]1[O-] | 26.5 µM (inactive) | 15.6 µM (inactive) | 28.6 µM (inactive) | 18.5 µM (inactive) | 6.58 µM (inactive) | 16.8 µM (inactive) | 16.9 µM (inactive) | 17.8 µM (inactive) | 13.7 µM (inactive) | 6.75 µM (inactive) | 22.1 µM (inactive) | 38.3 µM (inactive) | 20.7 µM (inactive) | 21.3 µM (inactive) | – | 14.8 µM (inactive) | 19.4 µM (inactive) | 14.2 µM (inactive) | 4.98 µM (inactive)
11 | O=C1CC(Br)c2c(Cl)sc(Cl)c21 (configuration not stated) | 16.4 µM (inactive) | 20.8 µM (inactive) | 17.5 µM (inactive) | 11.4 µM (inactive) | 12.1 µM (inactive) | 1.94 µM (inactive) | 2.54 µM (inactive) | 12.2 µM (inactive) | 0.403 µM (active) | 3.89 µM (inactive) | 9.98 µM (inactive) | 18 µM (inactive) | 16.5 µM (inactive) | 2.39 µM (inactive) | – | 3.66 µM (inactive) | 16.7 µM (inactive) | 3.1 µM (inactive) | 11.4 µM (inactive)
12 | C[n+]1c2ccc(Cl)cc2nc2cc(-c3ccccc3)ccc21 | 1.74 µM (inactive) | 11.1 µM (inactive) | 10.8 µM (inactive) | 2.9 µM (inactive) | 19.4 µM (inactive) | 5.69 µM (inactive) | 22.8 µM (inactive) | 18.9 µM (inactive) | 60.7 µM (inactive) | 2.67 µM (inactive) | 8.63 µM (inactive) | 24.1 µM (inactive) | 25.5 µM (inactive) | 1.77 µM (inactive) | 19.1 µM (inactive) | 1.32 µM (inactive) | – | 3.67 µM (inactive) | 10 µM (inactive)
13 | Fc1ccccc1/N=c1\oc2ccc(Br)cc2cc1-c1nc2ccccc2[nH]1 | 5.48 µM (inactive) | 7.93 µM (inactive) | 9.29 µM (inactive) | – | 2.32 µM (inactive) | 13.2 µM (inactive) | 6.59 µM (inactive) | 6.9 µM (inactive) | > 100 µM (inactive) | > 25.6 µM (inactive) | 6.7 µM (inactive) | 34.8 µM (inactive) | 0.485 µM (active) | 23.1 µM (inactive) | 4.26 µM (inactive) | 14.8 µM (inactive) | 10.7 µM (inactive) | 9.23 µM (inactive) | 8.95 µM (inactive)
14 | Clc1ccc(-c2nn3c(COc4cccc(OCc5nnc6sc(-c7ccc(Cl)cc7)nn56)c4)nnc3s2)cc1 | 31.3 µM (inactive) | 30.7 µM (inactive) | 21.3 µM (inactive) | 24.5 µM (inactive) | 19.2 µM (inactive) | 26.3 µM (inactive) | 36.8 µM (inactive) | 22.4 µM (inactive) | – | 11.2 µM (inactive) | 21.2 µM (inactive) | 28.6 µM (inactive) | 59 µM (inactive) | 19.4 µM (inactive) | > 100 µM (inactive) | 14.1 µM (inactive) | 51.3 µM (inactive) | 28.9 µM (inactive) | 26.8 µM (inactive)
15 | O=C1CS(=O)(=O)C(c2cccc(Oc3ccccc3)c2)N1c1cc(Cl)ccc1Cl (configuration not stated) | 22.9 µM (inactive) | 19 µM (inactive) | 35.2 µM (inactive) | 20 µM (inactive) | 47 µM (inactive) | 14 µM (inactive) | 30.1 µM (inactive) | 19.7 µM (inactive) | 15.4 µM (inactive) | 16.8 µM (inactive) | 17.5 µM (inactive) | 29.6 µM (inactive) | 33.3 µM (inactive) | 12.1 µM (inactive) | 19.2 µM (inactive) | 16.1 µM (inactive) | 24 µM (inactive) | 19.8 µM (inactive) | –
